{"source": "patent US20200140556A1", "about": "“Methods and Compositions for Dectin-2 Stimulation and Cancer Immunotherapy” (The Board of Trustees of the Leland Stanford Junior …, priority 2017, published 2020)", "key": {"[1]": {"system": "Dectin-2 expression by murine monocytes", "assay": "Dectin-2 expression by murine monocytes cultured with or without GM-CSF (flow cytometry)", "type": "cell-based", "procedure": "(§1) FIG. 4A-4D. GM-CSF induces Dectin-2 expression and sensitizes tumors to Dectin-2 stimuli. (FIG. 4A-4C) Murine (FIG. 4A, FIG. 4B) and human (FIG. 4C) monocytes were cultured for 24 hr in media supplemented or not with GM-CSF (50 ng/mL) prior to flow cytometric analysis of Dectin-2 expression (FIG. 4A, FIG. 4C) or stimulation with furfurman and analysis of TNFα production (FIG. 4B). […] (FIG. 4D) Mice bearing s.c. CT26 tumors were treated with mannan (i.v.) and/or GM-CSF (i.t.) starting on day 6 post-tumor implantation.\n(§2) FIG. 27A-27G. […] (FIG. 27A, FIG. 27B) Dectin-2 expression by mouse (FIG. 27A) or human (FIG. 27B) monocytes cultured for 18 hr with media supplemented or not with GM-CSF. (C-E) TNFα production by mouse monocytes pretreated with 3T3 fibroblast-conditioned medium+/−GM-CSF (FIG. 27C) or LMP tumor-conditioned medium+/−GM-CSF-neutralizing antibodies (FIG. 27D) or by human monocytes pretreated as indicated (FIG. 27E). (FIG. 27F) LMP-bearing mice treated with mannan (12.5 mg/kg i.v. q2d×2 wk) and the indicated anibodies (10 mg/kg i.p. q2d). (FIG. 27G) Heatmap depicting correlations between expression of Dectin-2 and the indicated genes in human cancer tissues. Gene expression data were obtained from TCGA and analyzed to obtain Spearman's correlation coefficients. **, p<0.01; ****, p<0.0001 by Student's t-test (B) or two-way ANOVA with post hoc Tukey's (F) test. […]"}, "[2]": {"system": "Dectin-2 expression by human monocytes", "assay": "Dectin-2 expression by human monocytes cultured with or without GM-CSF (flow cytometry)", "type": "cell-based", "procedure": "as §1, §2"}, "s.c. CT26 tumors": {"system": "s.c. CT26 tumors", "assay": "s.c. CT26 tumors treated with mannan (i.v.) and/or GM-CSF (i.t.)", "type": "in vivo, mice", "details": "from day 6", "procedure": "as §1\nas §1, with “(FIG.” for “FIG. 4A-4D. GM-CSF induces Dectin-2 expression and sensitizes tumors to Dectin-2 stimuli. (FIG.”, “production.” for “production (FIG. 4B).”"}, "monocytes": {"system": "monocytes", "assay": "TNFα production by monocytes pretreated with conditioned medium +/- GM-CSF", "type": "cell-based, mouse", "procedure": "FIG. 27A-27G. […] (FIG. 27A, FIG. 27B) Dectin-2 expression by mouse (FIG. 27A) or human (FIG. 27B) monocytes cultured for 18 hr with media supplemented or not with GM-CSF. (C-E) TNFα production by mouse monocytes pretreated with 3T3 fibroblast-conditioned medium+/−GM-CSF (FIG. 27C) or LMP tumor-conditioned medium+/−GM-CSF-neutralizing antibodies (FIG. 27D) or by human monocytes pretreated as indicated (FIG. 27E). (FIG. 27F) LMP-bearing mice treated with mannan (12.5 mg/kg i.v. q2d×2 wk) and the indicated anibodies (10 mg/kg i.p. q2d). (FIG. 27G) Heatmap depicting correlations between expression of Dectin-2 and the indicated genes in human cancer tissues. Gene expression data were obtained from TCGA and analyzed to obtain Spearman's correlation coefficients. **, p<0.01; ****, p<0.0001 by Student's t-test (B) or two-way ANOVA with post hoc Tukey's (F) test."}, "PDAC cells": {"system": "PDAC cells", "assay": "High-mannose glycan display by kifunensine-treated PDAC cells (concavalin A staining, flow cytometry)", "type": "cell-based", "details": "tumor cells treated 3 days", "procedure": "(§3) FIG. 5A-5D. Mannosidase inhibition with kifunensine induces high-mannose glycan display and increases tumor cell immunogenicity. (FIG. 5A-5C) PDAC cells were treated with kifunensine for 3 days prior to flow cytometric analysis (FIG. 5A) or coculture with TAM (FIG. 5B, FIG. 5C). (FIG. 5A) PDAC cells stained with the mannose-binding lectin, concavalin A. (FIG. 5B, FIG. 5C) Pretreated PDAC cells were labeled with CSFE and cocultured overnight with TAM to assess cytokine production (FIG. 5B) and tumor cell uptake (FIG. 5C) by Dectin-2-expressing TAM. In some experiments, TAM were treated with Dectin-2-blocking antibodies prior to coculture with PDAC cells (FIG. 5C). *, p<0.05 by Student's t-test. (FIG. 5D) Subcutaneous PDAC tumors from kifunensine-treated mice (i.p., q2d for 7 days) were analyzed by flow cytometry. CD8 T cells (CD8^+CD90^+) among total tumor-infiltrating immune cells are gated."}, "[3]": {"system": "tumor-associated myeloid cells (TAM cells)", "assay": "Coculture of kifunensine-pretreated PDAC cells with TAM (cytokine production, tumor cell uptake)", "type": "cell-based", "details": "overnight coculture; Dectin-2-dependent", "procedure": "as §3"}, "subcutaneous PDAC tumors": {"system": "subcutaneous PDAC tumors", "assay": "Subcutaneous PDAC tumors from kifunensine-treated mice (flow cytometry)", "type": "in vivo", "details": "i.p., q2d for 7 days", "procedure": "as §3"}, "TAMs": {"system": "TAMs", "assay": "Stimulation of TAMs by Man2-T785 conjugate in solution", "type": "cell-based", "details": "stimuli in solution, low / equivalent concentrations", "description": "FIG. 21. Data showing synergism when a Dectin-2 agonist (in this case 65% Man2 100-mer) is conjugated to an immunostimulatory agent (in this case TLR7/8 agonist T785), yielding a glycopeptide conjugate (Man2-T785) that strongly stimulates cells in soluble form.\nSynergistic immunostimulatory effects were also observed for the conjugate in vitro. […] Also surprising, the attachment of the TLR7/8 agonist changed the behavior of the Man2 glycopeptides in vitro. Whereas Man2 glycopeptides typically require immobilization (e.g., on a plate or cell) to strongly activate TAMs, the results shown were obtained with the stimuli in solution. […] The same is true of the Man2-antibody conjugates described elsewhere in this disclosure. FIG. 22A presents a schematic of the synthesis used to generate the Man2-T785 conjugate used in FIGS. 20 and 21. Synthetic schemes similar to that depicted in FIG. 22A could also be used to prepare conjugates using R848 (FIG. 22C) and other TLR7/8 ligands."}}, "data": [{"compound": "GM-CSF: granulocyte-macrophage colony-stimulating factor", "values": [{"measurement": "Dectin-2 expression", "setting": "[1]; mouse monocytes, 18 hr", "value": "drives Dectin-2 expression"}, {"measurement": "Dectin-2 expression", "setting": "[1]; murine monocytes, GM-CSF 50 ng/mL, 24 hr", "value": "induced Dectin-2 expression"}, {"measurement": "Dectin-2 expression", "setting": "[2]; 18 hr", "value": "drives Dectin-2 expression"}, {"measurement": "Dectin-2 expression", "setting": "[2]; GM-CSF 50 ng/mL, 24 hr", "value": "induced Dectin-2 expression"}, {"measurement": "tumor sensitivity to Dectin-2 stimuli (tumor volume)", "setting": "s.c. CT26 tumors", "value": "sensitized tumors to Dectin-2 stimuli"}, {"measurement": "sensitivity to Dectin-2 stimuli (TNFα production)", "setting": "monocytes", "value": "sensitizes TAMs to Dectin-2 stimuli"}]}, {"compound": "O=C1N[C@@H]2[C@@H](O)[C@@H](O)[C@H](O)[C@@H](CO)N2C1=O", "note": "[kifunensine]", "values": [{"measurement": "high-mannose glycans on the cell surface", "setting": "PDAC cells", "value": "sharp increase in high-mannose glycans on the cell surface"}, {"measurement": "TAM activation by treated tumor cells (cytokine production, tumor cell uptake)", "setting": "[3]", "value": "activated tumor-associated myeloid cells (TAM cells)"}, {"measurement": "T cell infiltration into tumors", "setting": "subcutaneous PDAC tumors", "value": "led to T cell infiltration into tumors"}, {"measurement": "high-mannose glycan display by tumor cells in vivo", "setting": "subcutaneous PDAC tumors", "value": "increased high-mannose glycan display by tumor cells"}]}, {"compound": "CCCCc1nc2c(N)nc3ccccc3c2n1CCCCN", "note": "[T785, 1-(4-aminobutyl)-2-butyl-1H-imidazo[4,5-c]quinolin-4-amine]", "values": [{"measurement": "TAM stimulation", "setting": "TAMs", "value": "did not"}]}]}
